# Measurements reported in US8012956B2, “Tropane compounds” (Exelixis, Inc., priority 2007, dated 2011).
# Biological target: HSP90 (Homo sapiens, UniProt P07900)
# Test: HSP90 inhibition (HSP90 IC50)
# Format: biochemical
row,IC50 [nM],Molecule
1,< 500,COc1cccc(C(=O)NC2CC3CCC(C2)N3c2ccc(C(=O)NCC3CCNC3)cn2)c1C (centres unmarked)
2,< 500,COc1cccc(C(=O)N[C@H]2C[C@H]3CC[C@@H](C2)N3c2ccc(C(=O)NCc3ccc(N4CCN(C)CC4)cc3)cn2)c1C
3,< 500,COc1ccc([C@H](C)NC(=O)c2ccc(N3C4CCC3CC(NC(=O)c3cccc(OC)c3C)C4)nc2)cc1 (some centres unmarked)
4,< 500,COc1cccc(C(=O)NC2CC3CCC(C2)N3c2ccc(C(=O)NC(C)c3ccccc3)cn2)c1C (centres unmarked)
5,< 500,COc1ccc(Nc2cc(C(=O)N[C@H]3C[C@H]4CC[C@@H](C3)N4c3ccc(C(=O)NC4CCCC4)cn3)ccc2C(N)=O)cc1OCCN(C)C
6,< 500,C[C@H](NC(=O)c1ccc(N2C3CCC2CC(NC(=O)c2ccc(C(N)=O)c(Nc4ccncc4)c2)C3)nc1)c1ccc(N2CCN(C)CC2)cc1 (some centres unmarked)
7,1000 to 2000,CC(C)C(=O)c1ccc(N2[C@@H]3CC[C@H]2C[C@@H](NC(=O)c2ccc(C(N)=O)c(NCC4CC4)c2)C3)nc1
8,< 500,CCC(CC)Nc1cc(C(=O)N[C@H]2C[C@H]3CC[C@@H](C2)N3c2ccc(C(C)=O)cn2)c(C)cc1C(N)=O
9,< 500,NC(=O)c1ccc(C(=O)N[C@H]2C[C@H]3CC[C@@H](C2)N3c2ccc(C(=O)C3CC3)cn2)cc1NC1CCCC1
10,< 500,CCC(C)Oc1cc(C(=O)N[C@H]2C[C@H]3CC[C@@H](C2)N3c2ccc(C(=O)C3CC3)cn2)c(C)cc1C(N)=O (some centres unmarked)
11,< 500,"NC(=O)c1cc(Cl)c(C(=O)N[C@H]2C[C@H]3CC[C@@H](C2)N3c2ccc(C(=O)NCc3ccccc3)cn2)cc1Cl [2,5-dichloro-N-[8-(5-{[(phenylmethyl)amino]carbonyl}pyridin-2-yl)-8-azabicyclo[3.2.1]oct-3-endo-yl]benzene-1,4-dicarboxamide]"
12,< 500,"Cc1cc(C(=O)NC2CC3CCC(C2)N3c2ccc(C(=O)N[C@@H](C)c3ccc(N4CCN(C)CC4)cc3)cn2)c(C)cc1C(N)=O (stereo partly drawn) [2,5-dimethyl-N-(8-{5-[({(1S)-1-[4-(4-methylpiperazin-1-yl)phenyl]ethyl}amino)carbonyl]pyridin-2-yl}-8-azabicyclo[3.2.1]oct-3-endo-yl)benzene-1,4-dicarboxamide]"
13,< 500,"Cc1cc(C(=O)N[C@H]2C[C@H]3CC[C@@H](C2)N3c2ccc(C(=O)NC3CN(C)C3)cn2)c(C)cc1C(N)=O [2,5-dimethyl-N-[8-(5-{[(1-methylazetidin-3-yl)amino]carbonyl}pyridin-2-yl)-8-azabicyclo[3.2.1]oct-3-endo-yl]benzene-1,4-dicarboxamide]"
14,500 to 999,"Cc1cc(C(=O)N[C@H]2C[C@H]3CC[C@@H](C2)N3c2ccc(C(=O)NC3CCN(C)CC3)cn2)c(C)cc1C(N)=O [2,5-dimethyl-N-[8-(5-{[(1-methylpiperidin-4-yl)amino]carbonyl}pyridin-2-yl)-8-azabicyclo[3.2.1]oct-3-endo-yl]benzene-1,4-dicarboxamide]"
15,< 500,"Cc1cc(C(=O)N[C@H]2C[C@H]3CC[C@@H](C2)N3c2ccc(C(=O)NCc3ccccc3)cn2)c(C)cc1C(N)=O [2,5-dimethyl-N-[8-(5-{[(phenylmethyl)amino]carbonyl}pyridin-2-yl)-8-azabicyclo[3.2.1]oct-3-endo-yl]benzene-1,4-dicarboxamide]"
16,< 500,"Cc1cc(C(=O)N[C@H]2C[C@H]3CC[C@@H](C2)N3c2ccc(C(=O)NC3CN(C(C)C)C3)cn2)c(C)cc1C(N)=O [2,5-dimethyl-N-{8-[5-({[1-(1-methylethyl)azetidin-3-yl]amino}carbonyl)pyridin-2-yl]-8-azabicyclo[3.2.1]oct-3-endo-yl}benzene-1,4-dicarboxamide]"
17,< 500,"Cc1cc(C(=O)NC2CC3CCC(C2)N3c2ccc(C(=O)N[C@@H]3CCCN(C(C)C)C3)cn2)c(C)cc1C(N)=O (stereo partly drawn) [2,5-dimethyl-N-{8-[5-({[(3R)-1-(1-methylethyl)piperidin-3-yl]amino}carbonyl)pyridin-2-yl]-8-azabicyclo[3.2.1]oct-3-endo-yl}benzene-1,4-dicarboxamide]"

row,IC50 [nM],Molecule
1,< 500,"Cc1cc(C(=O)N[C@H]2C[C@H]3CC[C@@H](C2)N3c2ccc(C(=O)N[C@@H]3CCN(C(C)C)C3)cn2)c(C)cc1C(N)=O [2,5-dimethyl-N-{8-[5-({[(3R)-1-(1-methylethyl)pyrrolidin-3-yl]amino}carbonyl)pyridin-2-yl]-8-azabicyclo[3.2.1]oct-3-endo-yl}benzene-1,4-dicarboxamide]"
2,< 500,"Cc1cc(C(=O)NC2CC3CCC(C2)N3c2ccc(C(=O)N[C@@H]3CCCN(C)C3)cn2)c(C)cc1C(N)=O (stereo partly drawn) [2,5-dimethyl-N-{8-[5-({[(3R)-1-methylpiperidin-3-yl]amino}carbonyl)pyridin-2-yl]-8-azabicyclo[3.2.1]oct-3-endo-yl}benzene-1,4-dicarboxamide]"
3,500 to 999,"Cc1cc(C(=O)NC2CC3CCC(C2)N3c2ccc(C(=O)N[C@@H]3CCN(C)C3)cn2)c(C)cc1C(N)=O (stereo partly drawn) [2,5-dimethyl-N-{8-[5-({[(3R)-1-methylpyrrolidin-3-yl]amino}carbonyl)pyridin-2-yl]-8-azabicyclo[3.2.1]oct-3-endo-yl}benzene-1,4-dicarboxamide]"
4,500 to 999,"Cc1cc(C(=O)NC2CC3CCC(C2)N3c2ccc(C(=O)N[C@H]3CCCN(C(C)C)C3)cn2)c(C)cc1C(N)=O (stereo partly drawn) [2,5-dimethyl-N-{8-[5-({[(3S)-1-(1-methylethyl)piperidin-3-yl]amino}carbonyl)pyridin-2-yl]-8-azabacyclo[3.2.1]oct-3-endo-yl}benzene-1,4-dicarboxamide]"
5,< 500,"Cc1cc(C(=O)N[C@H]2C[C@H]3CC[C@@H](C2)N3c2ccc(C(=O)N[C@H]3CCN(C(C)C)C3)cn2)c(C)cc1C(N)=O [2,5-dimethyl-N-{8-[5-({[(3S)-1-(1-methylethyl)pyrrolidin-3-yl]amino}carbonyl)pyridin-2-yl]-8-azabicyclo[3.2.1]oct-3-endo-yl}benzene-1,4-dicarboxamide]"
6,< 500,"Cc1cc(C(=O)NC2CC3CCC(C2)N3c2ccc(C(=O)N[C@H]3CCCN(C)C3)cn2)c(C)cc1C(N)=O (stereo partly drawn) [2,5-dimethyl-N-{8-[5-({[(3S)-1-methylpiperidin-3-yl]amino}carbonyl)pyridin-2-yl]-8-azabicyclo[3.2.1]oct-3-endo-yl}benzene-1,4-dicarboxamide]"
7,< 500,"Cc1cc(C(=O)NC2CC3CCC(C2)N3c2ccc(C(=O)N[C@H]3CCN(C)C3)cn2)c(C)cc1C(N)=O (stereo partly drawn) [2,5-dimethyl-N-{8-[5-({[(3S)-1-methylpyrrolidin-3-yl]amino}carbonyl)pyridin-2-yl]-8-azabicyclo[3.2.1]oct-3-endo-yl}benzene-1,4-dicarboxamide]"
8,500 to 999,"Cc1cc(C(=O)N[C@H]2C[C@H]3CC[C@@H](C2)N3c2ccc(C(=O)NC3CCN(C(C)C)CC3)cn2)c(C)cc1C(N)=O [2,5-dimethy˜-N-{8-[5-({[1-(1 methylethyl)piperidin-4-yl]amino}carbonyl)pyridin-2-yl]-8-azabicyclo[3.2.1]oct-3-endo-yl}benzene-1,4-dicarboxamide]"
9,500 to 999,"Cc1cc(C(N)=O)cc(C)c1C(=O)N[C@H]1C[C@H]2CC[C@@H](C1)N2c1ccc(C(=O)NCc2ccccc2)cn1 [2,6-dimethyl-N1-[8-(5-{[(phenylmethyl)amino]carbonyl}pyridin-2-yl)-8-azabicyclo[3.2.1]oct-3-endo-yl]benzene-1,4-dicarboxamide]"
10,1000 to 2000,"CC(=O)Nc1cc(C(=O)N[C@H]2C[C@H]3CC[C@@H](C2)N3c2ccc(C(N)=O)cn2)ccc1C(N)=O [2-(acetylamino)-N4-{8-[5-(aminocarbonyl)pyridin-2-yl]-8-azabicyclo[3.2.1]oct-3-endo-yl}benzene-1,4-dicarboxamide]"
11,< 500,"CCCCNc1cc(C(=O)N[C@H]2C[C@H]3CC[C@@H](C2)N3c2ccc(C(=O)C3CC3)cn2)ccc1C(N)=O [2-(butylamino)-N4-{8-[5-(cyclopropylcarbonyl)pyridin-2-yl]-8-azabicyclo[3.2.1]oct-3-endo-yl}benzene-1,4-dicarboxamide]"
12,< 500,"C[C@H](NC(=O)c1ccc(N2C3CCC2CC(NC(=O)c2ccc(C(N)=O)c(NC4CCC4)c2)C3)nc1)c1ccc(N2CCN(C)CC2)cc1 (stereo partly drawn) [2-(cyclobutylamino)-N4-(8-{5-[({(1S) 1-[4-(4-methylpiperazin-1-yl)phenyl]ethyl}amino)carbonyl]pyridin-2-yl}-8-azabicyclo[3.2.1]oct-3-endo-yl)benzene-1,4-dicarboxamide]"
13,500 to 999,"C[C@H](NC(=O)c1ccc(N2C3CCC2CC(NC(=O)c2ccc(C(N)=O)c(OC4CCC4)c2)C3)nc1)c1ccc(N2CCN(C)CC2)cc1 (stereo partly drawn) [2-(cyclobutyloxy)-N4-(8-{5-[({(1S)-1-[4-(4-methylpiperazin-1-yl)phenyl]ethyl}amino)carbonyl]pyridin-2-yl}-8-azabicyclo[3.2.1]oct-3-endo-yl)benzene-1,4-dicarboxamide]"
14,< 500,"COc1cc(C(=O)NC2CC3CCC(C2)N3c2ccc(C(=O)N[C@@H](C)c3ccc(N4CCN(C)CC4)cc3)cn2)ccc1C(N)=O (stereo partly drawn) [2-(methyloxy)-N4-(8-{5-[({(1S)-1-[4-(4-methylpiperazin-1-yl)phenyl]ethyl}amino)carbonyl]pyridin-2-yl}-8-azabicyclo[3.2.1]oct-3-endo-yl)benzene-1,4-dicarboxamide]"
15,< 500,"CCC(CC)Nc1cc(C(=O)NC2CC3CCC(C2)N3c2ccc(C(=O)N[C@@H]3CCNC3)cn2)ccc1C(N)=O (stereo partly drawn) [2-[(1-ethylpropyl)amino]-N4-[8-(5-{[(3R)-pyrrolidin-3-ylamino]carbonyl}pyridin-2-yl)-8-azabicyclo[3.2.1]oct-3-endo-yl]benzene-1,4-dicarboxamide]"
16,< 500,"CCC(CC)Nc1cc(C(=O)NC2CC3CCC(C2)N3c2ccc(C(=O)N[C@H]3CCCNC3)cn2)ccc1C(N)=O (stereo partly drawn) [2-[(1-ethylpropyl)amino]-N4-[8-(5-{[(3S)-piperidin-3-ylamino]carbonyl}pyridin-2-yl)-8-azabicyclo[3.2.1]oct-3-endo-yl]benzene-1,4-dicarboxamide]"

row,Molecule,IC50 [nM]
1,COC(=O)[C@@H](NC(=O)c1ccc(N2C3CCC2CC(NC(=O)c2cccc(OC)c2C)C3)nc1)c1ccc(OC)cc1 (some centres unmarked),1000 to 2000
2,"2-((cyclopropylmethyl)amino]-N4-{8- [5-({[(3R)-1-(1-methylethyl)pyrrolidin- 3-yl]amino}carbonyl)pyridin-2-yl]-8- azabicyclo[3.2.1]oct-3-endo- yl}benzene-1,4-dicarboxamide",< 500
